Our source for the IC50 values is patent publication US12065421B2, “Inhibitors of oplophorus luciferase-derived bioluminescent complexes” (priority 2018, dated 2024).

This assay concerns the target T1, NanoBiT® HiBiT non-luminescent peptide and LgBiT non-luminescent polypeptide (HiBiT/LgBiT bioluminescent complex) (Oplophorus gracilirostris, UniProt Q9GV45, A31E/A60N/A81I/C191F/D135N/E192K/F58L/F95D/G184S/G42A/G62A/G78A/G94A/G98A/H120P/I103V/I117V/I134L/K70R/L176M/L195S/L54V/L73R/L99Q/M102E/N171T/N193K/P142E/Q151K/Q38E/Q45L/T186S/V71I/Y165I).
T1 construct: fused on or other part: N-terminal Met-Val on LgBiT in place of the signal peptide (residues 1-27); The chain is split between residues 184 and 185 into LgBiT and the 11-residue HiBiT peptide (residues 185-195); C-terminal A196 is absent
In words: biochemical.

T1 sequence (Q9GV45 other isoform, or with tags, fused parts or gaps with the stated changes): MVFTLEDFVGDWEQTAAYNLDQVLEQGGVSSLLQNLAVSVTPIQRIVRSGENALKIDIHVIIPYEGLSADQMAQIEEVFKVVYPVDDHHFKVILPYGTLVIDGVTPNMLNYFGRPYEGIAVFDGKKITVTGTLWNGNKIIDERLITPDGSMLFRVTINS

On to `Cc1ccc(S(=O)(=O)Nc2ccccc2C(=O)NC2CCCCC2)cc1` [HL-0006, N-cyclohexyl-2-((4-methylphenyl)sulfonamido)benzamide], for which the half-inhibitory concentration (IC50) (usually the point on the concentration scale where inhibition reaches its midpoint) worked out at 0.21 µM.
`CCCCNc1cccc(S(=O)(=O)Nc2ccccc2C(=O)Nc2ccc(C)cc2)c1` [JRW-1269, 2-((3-(butylamino)phenyl)sulfonamido)-N-(p-tolyl)benzamide] showed an IC50 of 1.1 µM.
For `Cc1ccc(NC(=O)c2ccccc2NS(=O)(=O)c2cccc(C#CCO)c2)cc1` [JRW-1272, 2-((3-(3-hydroxyprop-1-yn-1-yl)phenyl)sulfonamido)-N-(p-tolyl)benzamide], the IC50 was determined as 0.7 µM.
`Cc1ccc(S(=O)(=O)Nc2ccccc2C(=O)N[C@H]2CC[C@H](C(=O)O)CC2)cc1` [HL-0012, trans-4-(2-((4-methylphenyl)sulfonamido)benzamido)cyclohexane-1-carboxylic acid] came in with an IC50 of 0.49 µM.
`O=Cc1ccc(S(=O)(=O)Nc2ccccc2C(=O)Nc2cc3ccccc3s2)cc1` [HL-0038, N-(benzo[b]thiophen-2-yl)-2-((4-formylphenyl)sulfonamido)benzamide] yielded an IC50 of 0.044 µM.
The compound `COc1cccc(S(=O)(=O)Nc2ccccc2C(=O)Nc2cc3ccccc3s2)c1` [JRW-1230, N-(benzo[b]thiophen-2-yl)-2-((3-methoxyphenyl)sulfonamido)benzamide] showed an IC50 of 0.0078 µM.
As to `Cc1ccc(S(=O)(=O)Nc2ccccc2C(=O)Nc2cccc(Br)c2)cc1` [JRW-1283, N-(3-bromophenyl)-2-((4-methylphenyl)sulfonamido)benzamide], the IC50 was 0.046 µM.
`CCCCC#Cc1cccc(S(=O)(=O)Nc2ccccc2C(=O)Nc2ccc(C)cc2)c1` [JRW-1270, 2-((3-(hex-1-yn-1-yl)phenyl)sulfonamido)-N-(p-tolyl)benzamide]: the IC50 came to 1.2 µM.
With `N#Cc1c(NC(=O)c2ccccc2NS(=O)(=O)c2ccccc2)sc2c1CCC2` [HL-0010, N-(3-cyano-5,6-dihydro-4H-cyclopenta[b]thiophen-2-yl)-2-(phenylsulfonamido)benzamide], inhibition was half-maximal at 0.022 µM (IC50).
Take `Cc1ccc(NC(=O)c2ccccc2NS(=O)(=O)c2cccc(Br)c2)cc1` [JRW-1267, 2-((3-bromophenyl)sulfonamido)-N-(p-tolyl)benzamide]: the IC50 stood at 0.036 µM.
Consider `CC(=O)Nc1cccc(S(=O)(=O)Nc2ccccc2C(=O)Nc2ccc(C)cc2)c1` [JRW-1253, 2-((3-acetamidophenyl)sulfonamido)-N-(p-tolyl)benzamide], for which the IC50 was 2.3 µM.
Under `Cc1ccc(NC(=O)c2ccccc2NS(=O)(=O)c2cccc(O)c2)cc1` [JRW-1236, 2-((3-hydroxyphenyl)sulfonamido)-N-(p-tolyl)benzamide] stands 0.033 µM.
Under `CCN(c1ccccc1C(=O)Nc1ccc(OC)cc1)S(=O)(=O)c1ccc(C)cc1` [JRW-1325, 2-((N-ethyl-4-methylphenyl)sulfonamido)-N-(4-methoxyphenyl)benzamide] stands 1.3 µM; under `CCOC(=O)c1cccc(NC(=O)c2ccccc2NS(=O)(=O)c2ccc(C)cc2)c1` [HL-0026, ethyl 3-(2-((4-methylphenyl)sulfonamido)benzamido)benzoate], 0.24 µM.
As for `CCCCc1cccc(NC(=O)c2ccccc2NS(=O)(=O)c2ccc(C)cc2)c1` [HL-0070, N-(3-butylphenyl)-2-((4-methylphenyl)sulfonamido)benzamide], the IC50 was found to be 0.13 µM.
The compound `Cc1ccc(S(=O)(=O)Nc2cc3ccccc3cc2C(=O)Nc2cc3ccccc3s2)cc1` [HL-0057, N-(benzo[b]thiophen-2-yl)-3-((4-methylphenyl)sulfonamido)-2-naphthamide] came in with an IC50 of 0.055 µM.
`Cc1ccc(S(=O)(=O)Nc2ccccc2C(=O)Nc2ccc(CCCCO)cc2)cc1` [JRW-1150, N-(4-(4-hydroxybutyl)phenyl)-2-((4-methylphenyl)sulfonamido)benzamide] showed an IC50 of 19 µM.
Under `COc1ccc(NS(=O)(=O)c2ccc(C)cc2)c(C(=O)Nc2ccc(C)cc2)c1` [JRW-1166, 5-methoxy-2-((4-methylphenyl)sulfonamido)-N-(p-tolyl)benzamide] stands 0.13 µM.
Turning to `Cc1ccc(S(=O)(=O)Nc2ccccc2C(=O)Nc2ccccc2)cc1` [JRW-1011, 2-((4-methylphenyl)sulfonamido)-N-phenylbenzamide], the IC50 came to 0.094 µM.
As for `Cc1ccc(NC(=O)c2ccccc2NS(=O)(=O)c2ccc(Br)cc2)cc1` [JRW-1287, 2-((4-bromophenyl)sulfonamido)-N-(p-tolyl)benzamide], the figure is 0.15 µM; as for `CCCCOc1cccc(S(=O)(=O)Nc2ccccc2C(=O)Nc2ccc(C)cc2)c1` [JRW-1266, 2-((3-butoxyphenyl)sulfonamido)-N-(p-tolyl)benzamide], 1.5 µM; as for `COc1ccc(C(=O)Nc2ccc(C)cc2)c(NS(=O)(=O)c2ccc(C)cc2)c1` [JRW-1202, 4-methoxy-2-((4-methylphenyl)sulfonamido)-N-(p-tolyl)benzamide], 0.18 µM.
Turning to `Cc1ccc(NC(=O)c2ccccc2NS(=O)(=O)c2cccc(-c3ccccc3)c2)cc1` [JRW-1248, 2-([1,1′-biphenyl]-3-sulfonamido)-N-(p-tolyl)benzamide], the IC50 was 0.28 µM.
Under `Cc1ccc(NC(=O)c2cc(O)ccc2NS(=O)(=O)c2ccc(C)cc2)cc1` [JRW-1232, 5-hydroxy-2-((4-methylphenyl)sulfonamido)-N-(p-tolyl)benzamide] stands 1 µM; under `Cc1ccc(S(=O)(=O)Nc2cc(F)ccc2C(=O)Nc2cc3ccccc3s2)cc1` [JRW-1346, N-(benzo[b]thiophen-2-yl)-4-fluoro-2-((4-methylphenyl)sulfonamido)benzamide], 0.014 µM; under `Cc1ccc(S(=O)(=O)Nc2ccccc2C(=O)Nc2cccc(C(C)C)c2)cc1` [HL-0025, N-(3-isopropylphenyl)-2-((4-methylphenyl)sulfonamido)benzamide], 0.085 µM.
As to `COc1ccc(S(=O)(=O)Nc2ccccc2C(=O)Nc2ccc(C)cc2)cc1` [JRW-1285, 2-((4-methoxyphenyl)sulfonamido)-N-(p-tolyl)benzamide], the midpoint of inhibition, the IC50, lay at 0.36 µM.
`Cc1ccc(NC(=O)c2ccccc2NS(=O)(=O)c2ccc(C)cc2)cc1` [HL-0019, 2-((4-methylphenyl)sulfonamido)-N-(p-tolyl)benzamide] registered an IC50 of 0.029 µM.
The compound `Cc1ccc(S(=O)(=O)Nc2ccccc2C(=O)Nc2sccc2C#N)cc1` [JRW-1006, N-(3-cyanothiophen-2-yl)-2-((4-methylphenyl)sulfonamido)benzamide] came in with an IC50 of 1 µM.
Under `CCOC(=O)Cc1ccc(NC(=O)c2ccccc2NS(=O)(=O)c2ccc(C)cc2)cc1` [HL-0023, ethyl 2-(4-(2-((4-methylphenyl)sulfonamido)benzamido)phenyl)acetate] stands 0.58 µM; under `COc1cccc(NC(=O)c2ccccc2NS(=O)(=O)c2ccc(C)cc2)c1` [JRW-1299, N-(3-methoxyphenyl)-2-((4-methylphenyl)sulfonamido)benzamide], 0.09 µM; under `Cc1ccc(S(=O)(=O)Nc2ccccc2C(=O)Nc2ccccc2Br)cc1` [JRW-1282, N-(2-bromophenyl)-2-((4-methylphenyl)sulfonamido)benzamide], 0.2 µM.
Regarding `O=C(Nc1cc2ccccc2s1)c1ccccc1NS(=O)(=O)c1ccc2c(c1)CCCC2` [JRW-1077, N-(benzo[b]thiophen-2-yl)-2-((5,6,7,8-tetrahydronaphthalene)-2-sulfonamido)benzamide], half-maximal inhibition (IC50) required 0.089 µM.
`CCCCc1ccc(S(=O)(=O)Nc2ccccc2C(=O)Nc2cc3ccccc3s2)cc1` [JRW-1114, N-(benzo[b]thiophen-2-yl)-2-((4-butylphenyl)sulfonamido)benzamide] showed an IC50 of 0.17 µM.
In turn, `Cc1ccc(S(=O)(=O)Nc2ccccc2C(=O)Nc2cccc(C)c2)cc1` [HL-0044, 2-((4-methylphenyl)sulfonamido)-N-(m-tolyl)benzamide] had a concentration for half-maximal inhibition (IC50) of 0.088 µM.
Compound `Cc1ccc(S(=O)(=O)Nc2ccccc2C(=O)Nc2sc3c(c2C#N)CCC3)cc1` [JRW-0998, N-(3-cyano-5,6-dihydro-4H-cyclopenta[b]thiophen-2-yl)-2-((4-methylphenyl)sulfonamido)benzamide] had an IC50 of 0.043 µM.
